Assay type in all cases: in vivo
One test deals with Aedes aegypti. Description: one-choice mosquito landing rate inhibition assay. The procedure: The clonal population serving as source material for the essential oil was the ‘CR3’ cultivar. The hydro-distilled essential oil from this population was used as the source for the crude essential oil treatment and was partitioned for subsequent fractionation and nepetalactone purification. The clones were transplanted to the field. Immediately before the plants were in full flower, they were harvested and dried at 37° C. with an onsite Powell walk-in forced air heat dryer kept under low heat conditions. Once the plants had lost all moisture, under the temperature and pressure conditions, the leaves and flowers were separated from the stems for hydro-distillation. Essential oils were extracted by hydro-distilling 60 g of dried N. cataria leaves and flowers. They were distilled in a 2 L round bottom flask for 3 hours in 1 L of water and the essential oil was collected in a Clevenger-type trap. The essential oils were then prepared and analyzed by GC/MS. The CR3 essential oil contained about 29% Z, E-nepetalactone and about 59% E, Z-nepetalactone (% of the total essential oil). […]
(§1) Repellency was determined by a one-choice landing assay that uses the amount of mosquito landings to calculate the overall effectiveness of the candidate repellent. […] Time lapse photography recorded one image every five seconds. […]

Another test concerns Anopholes gambiae. Put plainly: one-choice mosquito landing rate inhibition assay. As for the experimental part:
The clonal population serving as source material for the essential oil was the ‘CR3’ cultivar. The hydro-distilled essential oil from this population was used as the source for the crude essential oil treatment and was partitioned for subsequent fractionation and nepetalactone purification. The clones were transplanted to the field. Immediately before the plants were in full flower, they were harvested and dried at 37° C. with an onsite Powell walk-in forced air heat dryer kept under low heat conditions. Once the plants had lost all moisture, under the temperature and pressure conditions, the leaves and flowers were separated from the stems for hydro-distillation. Essential oils were extracted by hydro-distilling 60 g of dried N. cataria leaves and flowers. They were distilled in a 2 L round bottom flask for 3 hours in 1 L of water and the essential oil was collected in a Clevenger-type trap. The essential oils were then prepared and analyzed by GC/MS. The CR3 essential oil contained about 29% Z, E-nepetalactone and about 59% E, Z-nepetalactone (% of the total essential oil).
as §1

The test system of the next test is Ixodes scapularis. Description: one-choice tick filter paper repellency assay (petri dish arena). Particulars: I. scapularis, 15 minutes, three replicates. The procedure:
(§2) An arena was constructed out of petri dishes to establish a dose response curve of a repellent ('CR3′ essential oil or DEET) filter paper by monitoring the total amount of tick positions over 15 minutes (1 image every 15 sec) and calculating percent repellency. ‘CR3’ oils were extracted with acetone as described in Example 3. In a one-choice assay, the repellent was applied to half of the filter paper and placed into the petri dish where the ticks are placed, the petri dish cover applied, and the number of ticks counted applied to the repellent zone. In the two-choice repellency test (see FIG. 6), DEET and a repellent (‘CR3’ essential oil) were applied to different sides of the filter paper and the ticks are counted in reference to the test repellent, not DEET. Total Tick positions=(# ticks in petri dish)×(60 images) Percent repellency=[(# of ticks in the repellent zone)/(Total Tick positions)]*100 Three replicates were performed for each treatment. Complete repellency was defined as repelling greater than 95% of the ticks.

For a further test, the system named is Dermacentor variabilis. Described as above. Particulars: D. variabilis, 15 minutes, three replicates. The procedure:
as §2

[1] abbreviates: 0.01% of the treatment applied to the filter paper.

For `CCN(CC)C(=O)c1cccc(C)c1` [DEET], the “reduction of A. aegypti landing” value with Aedes aegypti (setting [1]) is recorded as “about 32%”. In addition, the “decrease of mosquito landings (repellency)” value with Aedes aegypti (A. aegypti, treatment at 1% on filter paper) is over 95%; with Anopholes gambiae (A. gambiae, treatment at 1% on filter paper), over 95%. Moreover, the “reduction of A. gambiae landing” value with Anopholes gambiae (setting [1]) is “about 35%”. Besides, the percent repellency is on record as 59.16±8.94 in the test on Ixodes scapularis (applied at 0.1%), 99.79±0.36 in the test with Ixodes scapularis (applied at 1%), 86.06±10.2 in the test with Dermacentor variabilis (applied at 0.1%) and 99.31±1.00 with Dermacentor variabilis (applied at 1%).
